From PMC10746708, “A small molecule iCDM-34 identified by in silico screening suppresses HBV DNA through activation of aryl hydrocarbon receptor” (Cell Death Discovery, 2023) come the findings set out here.

A short description of series [1]: Liver microsomal stability, rat. Type of series: in vitro ADME. The conditions noted are these: rat liver microsomes. Here is the method:
(§1) Liver microsome stability studies (human, mouse, and rat) were performed at Sumika Chemical Analysis Service (Osaka, Japan) by following an established procedure. A mixture of 1 μM of substrate, 0.5 mg protein/mL of microsomes, and […] β-NADPH was incubated for 30 or 60 min and % remaining substrate was quantitatively measured by LC-MS/MS.
In general terms: Microsomes from liver hold many membrane-bound enzymes, among them those of drug oxidation.

Series [2] in a line: Liver microsomal stability, human. Type of series: in vitro ADME. The conditions noted are these: human liver microsomes. As to the method: as §1
In the next series the test system is phospho-SAMHD1. Briefly: Western blotting of phospho-SAMHD1 in HepG2-NTCP-C4 cells. Type of series: cell-based, human. The conditions noted are these: 30 μM, 1 day. As to the method:
HepG2-NTCP-C4 cells were treated with 30 μM iCDM-17 and iCDM-34 for 1 day. The cells were lyzed with 20 mM TrisHCl pH 7.5 containing 100 mM NaCl, 10 mM EDTA, 1% TritonX-100, 1% Sodium deoxycholate, PhosSTOP (Roche), Complete EDTA free. The lysates were sonicated 30 s and mixed for 1 h with rotation at 4 °C. The lysates were centrifuged at 15,000 rpm for 10 min at 4 °C. The supernatants were analyzed by Western blotting using anti-phospho-SAMHD1 (Thr592) (Cell signaling technology, 89930, 1/1000), anti-SAMHD1 (Cell signaling technology, 49158, 1/1000), and β−actin (Santa Cruz, 1/1000).
For orientation: Immunoblotting shows a protein as a band on a membrane.

Another series has as its system HBV genotype C. As to the kind of experiment: Anti-HBV activity in HBV-infected PXB cells (HBV DNA by qPCR). Type of series: cell-based. The settings on record: Hepatitis B virus, 168 h; HBV genotype C-infected PXB cells, 0.03–100 µM for 7 days, qPCR; read-out: half maximal inhibitory concentration, cellular HBV DNA. As to the method: PXB cells (primary cultured human hepatocytes) were purchased from PhoenixBio (Higashi-Hiroshima, Japan) and cultured on collagen type I-coated 96- or 24-well plates in hepatocyte clonal growth medium at 37 °C and 5 % CO2 as previously described. RealTime-Glo MT Cell Viability Assay (Promega) and XTT assay were performed according to a previously established protocol.
PXB cells were plated on 96-well plate and infected with three genome equivalents per cell of HBV C_AT [33], and the medium was changed every 3 or 4 days. […] After treatment with these compounds, cellular DNA, medium DNA, and total RNA were automatically purified as per our previously established protocol. RNA purification of total RNA from cultured cells in the 24-well plate was performed using the RNeasy Mini Kit (Qiagen, Germantown, MD, USA) according to the manufacturer’s instructions.
HBV DNA copy numbers were determined using TaqMan Gene Expression Master Mix (Thermo Fisher Scientific) or Probe qPCR Mix (Takara Bio), specific primers, and probes in a qPCR system (Light Cycler 96 System, Roche, Basel, Switzerland or CFX96 Touch Real-Time PCR Detection System, Bio-Rad Laboratories, Hercules, CA, USA). The specific primers and probe used for detection of HBV DNA were as follows: forward primer: 5′-[…]-3′, reverse primer: 5′-[…]-3′, and probe: 5′-[FAM] […][TAM]-3′.
Background: In qPCR the cycle at which signal appears reflects the starting amount.

The nature of series [3]: Liver microsomal stability, mouse. Type of series: in vitro ADME. The conditions noted are these: mouse liver microsomes. As to the method: as §1
In the next series the test system is JAK/STAT signaling. Briefly: Western blotting of phospho-STAT1, STAT2, STAT3 in HCV replicon cells. Type of series: cell-based, human. The settings on record: 30 μM, 24 h. As to the method:
HCV replicon cells were treated with 30 μM CDM-3008, iCDM-17, and iCDM-34 for 1 day. The cells were lyzed with 1 x SDS sample buffer containing PhosStop, Complete EDTA free, and 1 mM EDTA. After sonication for 30 s, the lysates were centrifuged at 12,000g for 10 min at 4 °C, and then the supernatants were collected. After reducing the 20 μg of supernatants with 50 mM DTT at 98 °C for 2 min, the samples were separated by SDS-PAGE. STAT1, STAT2, STAT3, pSTAT1, pSTAT2, and pSTAT3 were detected by Western blotting using anti-STAT1 (9175, 1/1000), STAT2 (72604, 1/1000), STAT3 (12640, 1/1000), pSTAT1 (Y701) (7649, 1/1000), pSTAT2 (Y690) (88410, 1/1000), and pSTAT3 (Y705) (9145, 1/1000) antibodies (Cell signaling technology, Massachusetts, USA).

Where [4] appears, read: 1 μM substrate, 0.5 mg protein/mL, 30 min.
Setting [5] is: 1 μM substrate, 0.5 mg protein/mL, 60 min.

Usually half-life stands for the time needed for the level to fall by half in the phase considered. Low readings indicate fast loss, high ones slow loss. Usually fraction remaining stands for what is left of the initial amount, in per cent. As to `COc1ccc(CNC(=O)c2nc(-c3ccc4c(c3)OCO4)no2)cc1OC` [iCDM-17], the half-life at 1 μM in series [1] was 26.7 min; in series [2], 48.6 min; in series [3], 34.8 min. In addition, the fraction remaining at 0.5 h, 1 μM came out at 32 ± 0.2% in series [1] (setting [4]), 61.4 ± 0.9% in series [2] (setting [4]) and 45.8 ± 0.6% in series [3] (setting [4]). Also, the share remaining at 1 h, 1 μM came to 11.6 ± 0.2% in series [1] (setting [5]), 42.3 ± 0.1% in series [2] (setting [5]) and 22.6% in series [3] (setting [5]). The phospho-SAMHD1 levels entry in the series with phospho-SAMHD1 is listed as “lower than pre-treatment levels”. In the series with HBV genotype C, the IC50 came out at 56.6 µM. For the same compound, the “phosphorylation of STAT1, STAT2, and STAT3” value with JAK/STAT signaling is on record as “not induced”.
